This passage reports IC50 results from US8158621B2, “Methods of treating or preventing autoimmune diseases with 2,4-pyrimidinediamine compounds” (Rigel Pharmaceuticals, Inc., priority 2002, dated 2012).

Structures are written as SMILES. Where only a bound is given, the exact number is not on record here.

One assay has as its system Human Jurkat T-cells (clone N). The assay can be described thus: Jurkat T-cell activation (anti-TCR, CD69 upregulation).
Conditions: not given
It is filed as cell-based. The method in brief:
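Readout is CD69 upregulation by flow cytometry (anti-CD69-APC, 20 min at 4 °C) after 20 h anti-TCR (C305, 500 ng/ml) stimulation at 37 °C.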
For the compound `O=C(CNc1cccc(Nc2ncc(F)c(Nc3ccc4c(c3)OCCO4)n2)c1)N1CCNCC1` [Compound R950197], the half-maximal inhibitory concentration (IC50) (as a rule, the midpoint of a concentration-inhibition curve) is 2.58 µM. The same measure, in the same setting: the same measure for `CCOC(=O)c1cnc(N[C@H](C(=O)OCC)C(C)C)nc1N[C@H](C(=O)OCC)C(C)C` [Compound R926527]: 21.2 µM.

The compound `Cc1nc(COc2cccc(Nc3nc(Nc4ccc(OCC(N)=O)cc4)ncc3F)c2)no1` [Compound R945133] yielded an IC50 of 9.14 µM. Still for that read-out and setting: the result for `O=C(CNc1cccc(Nc2ncc(F)c(Nc3cccc(O)c3)n2)c1)NCCN1CCOCC1` [Compound R950226] reads 2.92 µM; that for `CNC(=O)Cn1ncc2ccc(Nc3ncc(F)c(Nc4ccc5cnn(CC(=O)NC)c5c4)n3)cc21` [Compound R935206], greater than 10 µM. Still for that read-out and setting: the same measure for `CC(C)(CO)c1ccc(Nc2ncc(F)c(Nc3cccc(O)c3)n2)cc1` [Compound R935171]: 3.93 µM; for `COc1cc(Nc2nc(Nc3cccc(O)c3)ncc2F)c(OC)cc1Cl` [Compound R926860]: greater than 10 µM. `O=C(CNc1cccc(Nc2ncc(F)c(Nc3cccc(NCCO)c3)n2)c1)NCCN1CCOCC1` [Compound R950239] came in with an IC50 greater than 10 µM.

`CNC(=O)COc1cccc(Nc2ncc(F)c(Nc3ccc(Cl)c(C(F)(F)F)c3)n2)c1` [Compound R926881]: the IC50 is 11 µM. Still for that read-out and setting: the same measure for `CC(C)c1cccc(Nc2nc(Nc3cccc(OCCO)c3)ncc2F)c1` [Compound R940289]: 3.65 µM; for `CNC(=O)COc1cccc(Nc2ncc(F)c(Nc3cc(OC)cc(C(F)(F)F)c3)n2)c1` [Compound R926833]: 11.8 µM.

For the compound `Cc1cc(Nc2nc(Nc3cccc(OCC(=O)N4CCOCC4)c3)ncc2F)cc(C)c1O` [Compound R940254], the IC50 is 3.76 µM.

On to `CCOC(=O)c1cnc(Nc2ccc(OCC(=O)OC)cc2)nc1Nc1ccc(OCC(=O)OC)cc1` [Compound R926253], for which the IC50 was greater than 10 µM. On the same count and under the same terms, the result for `CC(C)(CO)NC(=O)COc1cccc(Nc2ncc(F)c(Nc3ccc4c(c3)OCCO4)n2)c1` [Compound R926764] reads 2.17 µM. The same measure, in the same setting: the result for `CNC(=O)COc1cccc(Nc2ncc(F)c(Nc3ccc(OC)c(OC)c3)n2)c1` [Compound R926733] reads 3.59 µM; that for `COC(=O)Cn1ncc2cc(Nc3ncc(F)c(Nc4ccc5c(c4)OCCO5)n3)ccc21` [Compound R935223], 4.57 µM; that for `Cc1cc(Nc2nc(Nc3cccc(OCCN4CCNCC4)c3)ncc2F)cc(Cl)c1O` [Compound R945150], 1.11 µM. `Cc1ccc(Nc2nc(Cl)ncc2F)cc1CNC(=O)OC(C)(C)C` [Compound R926924] displayed an IC50 of 3.23 µM.

Take `CNC(=O)COc1cccc(Nc2ncc(F)c(Nc3ccc(OCCC(=O)O)cc3)n2)c1` [Compound R950344]: the IC50 was greater than 10 µM. Same read-out and setting: the result for `NC(=O)COc1cccc(Nc2ncc(F)c(Nc3ccc4c(c3)OCCO4)n2)c1` [Compound R926747] reads 3.28 µM; that for `CC(C)c1cccc(Nc2nc(Nc3ccc4oc(CO)cc4c3)ncc2F)c1` [Compound R940286], 4.4 µM. Still for that read-out and setting: the same measure for `CNC(=O)COc1cccc(Nc2ncc(F)c(Nc3cccc(N(C)C)c3)n2)c1` [Compound R950264]: 1.99 µM; for `N#CCOc1ccc(Nc2nc(Nc3ccc(OCC(=O)O)cc3)ncc2F)cc1` [Compound R945097]: greater than 10 µM; for `Nc1cccc(Nc2nc(Nc3cccc(NC(=O)CCC(N)C(=O)O)c3)ncc2F)c1` (racemic) [Compound R950255]: greater than 10 µM.

On to `CC(C)(C)c1ccc(Nc2nc(Nc3cccc(OCCO)c3)ncc2F)cc1` [Compound R926728], for which the half-inhibitory concentration (IC50) was greater than 10 µM. `O=C(COc1cccc(Nc2ncc(F)c(Nc3cc(Cl)c(O)c(Cl)c3)n2)c1)N1CCOCC1` [Compound R950187] had an IC50 of 22.3 µM. The same measure, in the same setting: the result for `CNC(=O)COc1cccc(Nc2ncc(F)c(Nc3ccc4c(c3)C(N)CCO4)n2)c1` (centres unmarked) [Compound R950368] reads 0.125 µM. The same measure, in the same setting: the same measure for `CNC(=O)COc1cccc(Nc2ncc(F)c(Nc3cc(OC)cc(OC)c3)n2)c1` [Compound R926796]: 4.21 µM; for `CNC(=O)COc1cccc(Nc2ncc(F)c(Nc3ccc(OC)c(C(=O)NC(C)C)c3)n2)c1` [Compound R940312]: 16.2 µM; for `CCOC(=O)COc1ccc(Nc2ncc(F)c(Nc3ccc4c(c3)OCCO4)n2)cn1` [Compound R926740]: greater than 10 µM. Still for that read-out and setting: the result for `CCOC(=O)C(C)(C)Oc1cccc(Nc2ncc(F)c(Nc3ccc(C)c(O)c3)n2)c1` [Compound R926908] reads 30.6 µM; that for `OCCOc1cccc(Nc2ncc(CO)c(Nc3cccc(O)c3)n2)c1` [Compound R926735], 5.98 µM. As to `CNC(=O)COc1cccc(Nc2ncc(F)c(Nc3ccc4cc(C(=O)OC)[nH]c4c3)n2)c1` [Compound R926904], 1.36 µM corresponded to half-maximal inhibition (IC50). On the same count and under the same terms, the result for `CNC(=O)COc1ccc(Nc2ncc(F)c(Nc3ccc4c(c3)OCCO4)n2)cc1` [Compound R909240] reads 2.85 µM; that for `O=C(c1cccc(Nc2ncc(F)c(Nc3cccc(O)c3)n2)c1)N1CCOCC1` [Compound R926938], greater than 10 µM; that for `Cc1cc(Nc2nc(Nc3cccc(OCC(=O)N4CCNCC4)c3)ncc2F)cc(Cl)c1O` [Compound R945149], 1.23 µM. For `O=C(COc1cccc(Nc2ncc(F)c(Nc3cccc(O)c3)n2)c1)N1CCNCC1` [Compound R926773], the half-inhibitory concentration (IC50) was 1.84 µM. For the compound `OB(O)c1cccc(Nc2ncc(F)c(Nc3ccc4c(c3)OCCO4)n2)c1` [Compound R926837], the IC50 was greater than 10 µM. In turn, `O=C(NCCO)c1cc2cc(Nc3ncc(F)c(Nc4ccc5oc(C(=O)NCCO)cc5c4)n3)ccc2o1` [Compound R950167] had an IC50 greater than 10 µM.

Turning to `CCOC(=O)COc1cccc(Nc2nc(Nc3cc(OC)cc(OC)c3)ncc2F)c1` [Compound R926804], the IC50 was greater than 10 µM. Still for that read-out and setting: the same measure for `CNC(=O)COc1cccc(Nc2ncc(F)c(Nc3ccc(OC)c(O)c3)n2)c1` [Compound R926834]: 2.57 µM; for `Fc1cnc(Nc2ccc3c(c2)OCCO3)nc1Nc1ccc(OCCN2CCOCC2)cc1` [Compound R926711]: 3.79 µM; for `CCOC(=O)COc1cccc(Nc2ncc(F)c(Nc3ccc4c(c3)OCCO4)n2)c1` [Compound R926482]: 8.26 µM. The same measure, in the same setting: the result for `CCCCNC(=O)COc1ccc(Nc2ncc(C#N)c(Nc3ccc(OCC(=O)NCCCC)cc3)n2)cc1` [Compound R925860] reads 41.9 µM. `CNC(=O)COc1ccc(Nc2nc(Nc3ccc4c(c3)OCCO4)ncc2F)cc1` [Compound R945173] registered a concentration for half-maximal inhibition (IC50) of 2.88 µM. Same read-out and setting: the same measure for `OCCn1ncc2cc(Nc3ncc(F)c(Nc4cccc(O)c4)n3)ccc21` [Compound R935256]: 0.92 µM. On the same count and under the same terms, the result for `CC(C)(CO)c1ccc(Nc2nc(Nc3ccc4c(c3)OCCO4)ncc2F)cc1` [Compound R935173] reads 3.91 µM. For `ON=C1CCOc2ccc(Nc3ncc(F)c(Nc4ccc5c(c4)C(=NO)CCO5)n3)cc21` [Compound R950381], it took 0.805 µM to reach half-maximal inhibition (IC50).

Staying with this assay, now noted: Homo sapiens, Jurkat.
The compound `Cc1ccc(CNc2ncc(F)c(Nc3ccc4c(c3)OCCO4)n2)cc1Cl` [Compound R908696] gave an IC50 greater than 10 µM. For `Fc1ccc(Nc2ncc(F)c(Nc3ccc(F)c(Cl)c3)n2)cc1Cl` [Compound R926223], the IC50 is greater than 10 µM. Compound `Cc1ccc(Nc2ccnc(Nc3ccc(C)c(N)c3)n2)cc1N` [Compound R950130] had an IC50 greater than 10 µM. Same read-out and setting: the result for `CN(C)c1cccc(Nc2ncc(F)c(Nc3cccc(N(C)C)c3)n2)c1` [Compound R950182] reads greater than 10 µM; that for `O=S(=O)(c1ccc(Nc2ncc(F)c(Nc3ccc4c(c3)OCCO4)n2)cc1)N1CCCC1` [Compound R926716], 3.62 µM. Compound `Nc1cccc(Nc2ncc(F)c(Nc3cccc(N)c3)n2)c1` [Compound R950107] returned an IC50 of 5.42 µM.

In the case of `CCOC(=O)Cc1ccc(Nc2ncc(C#N)c(Nc3ccc(CC(=O)OCC)cc3)n2)cc1` [Compound R926662], the IC50 was greater than 10 µM. On the same count and under the same terms, the same measure for `O=C(O)c1ccc(Nc2ncc(F)c(Nc3ccc(C(=O)O)cc3)n2)cc1` [Compound R945037]: greater than 10 µM; for `CCCCCCOc1ccc(Nc2ncc(F)c(Nc3ccc4c(c3)OCCO4)n2)cc1` [Compound R920664]: greater than 10 µM; for `Fc1cnc(Nc2cccnc2)nc1Nc1ccc2c(c1)OCCO2` [Compound R920668]: greater than 10 µM.

Take `CCOC(=O)c1cc2cc(Nc3ncc(F)c(Nc4ccc5c(c4)OCCO5)n3)ccc2[nH]1` [Compound R926476]: the IC50 is 3.9 µM. That is a single-digit micromolar value. Same read-out and setting: the same measure for `Nc1ccc(F)c(Nc2ncc(F)c(Nc3cc(N)ccc3F)n2)c1` [Compound R950158]: 21.4 µM; for `CCc1ccc(Nc2ncc(F)c(Nc3ccc4c(c3)OCCO4)n2)cc1` [Compound R926237]: greater than 10 µM.

Consider `Nc1cccc(Nc2nc(Nc3cccc(O)c3)ncc2F)c1` [Compound R950163], for which half-maximal inhibition (IC50) was put at 24.1 µM. In other words, the double-digit micromolar range.

For the compound `CCNC(=O)Nc1ccc(Nc2ncc(F)c(Nc3ccc(NC(=O)NCC)cc3)n2)cc1` [Compound R945040], the half-inhibitory concentration (IC50) was greater than 10 µM. The same measure, in the same setting: the same measure for `CCOc1cccc(Nc2ncc(F)c(Nc3cccc(OCC)c3)n2)c1` [Compound R926064]: greater than 10 µM; for `CC(C)Nc1cccc(Nc2ncc(F)c(Nc3cccc(NC(C)C)c3)n2)c1` [Compound R950166]: greater than 10 µM; for `COc1ccc(CNc2ncc(F)c(Nc3ccc4c(c3)OCCO4)n2)cc1` [Compound R926230]: greater than 10 µM. `Fc1cnc(Nc2ccc3[nH]ccc3c2)nc1Nc1ccc2c(c1)OCCO2` [Compound R926748]: half-maximal inhibition (IC50) required 2.77 µM. Consider `CCOC(=O)c1nc(Nc2cccc(O)c2)nc(Nc2cccc(O)c2)c1[N+](=O)[O-]` [Compound R925849], for which the IC50 is 8.02 µM. In turn, `Oc1cccc(Nc2nc(Cl)c(Cl)c(Nc3cccc(O)c3)n2)c1` [Compound R926591] showed an IC50 greater than 10 µM. The same measure, in the same setting: the same measure for `Oc1cccc(Nc2ncc(F)c(Nc3cccc(OC(F)(F)F)c3)n2)c1` [Compound R926885]: greater than 10 µM.

The compound `Oc1cccc(Nc2nc(NCc3cccnc3)ncc2F)c1` [Compound R945165] yielded an IC50 greater than 10 µM.
